Active and inactive are the calls of the source.
How the values were obtained:
Cytochrome P450 2C19 = Cytochrome P450 2C19 (Homo sapiens, UniProt P33261); assay: Cytochrome panel assay with activity outcomes. Panel member name: p450-cyp2c19 Compounds with AC50 equal or less than 10 uM are considered active; format: functional
[1] = target: T1, Heat shock factor protein 1 (Mus musculus, UniProt P38532); assay: decrease of HSF1-responsive luciferase luminescence – cell-based, NIH3T3, dose retest, confirmation (AID 2382); format: functional;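 note: NIH3T3 fibroblasts with HSF1-driven luciferase reporter stressed by proteasome inhibitor MG132; luminescence from HSF1-driven luciferase expression after 8 hours of MG132 stress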
T1 sequence (P38532 whole entry): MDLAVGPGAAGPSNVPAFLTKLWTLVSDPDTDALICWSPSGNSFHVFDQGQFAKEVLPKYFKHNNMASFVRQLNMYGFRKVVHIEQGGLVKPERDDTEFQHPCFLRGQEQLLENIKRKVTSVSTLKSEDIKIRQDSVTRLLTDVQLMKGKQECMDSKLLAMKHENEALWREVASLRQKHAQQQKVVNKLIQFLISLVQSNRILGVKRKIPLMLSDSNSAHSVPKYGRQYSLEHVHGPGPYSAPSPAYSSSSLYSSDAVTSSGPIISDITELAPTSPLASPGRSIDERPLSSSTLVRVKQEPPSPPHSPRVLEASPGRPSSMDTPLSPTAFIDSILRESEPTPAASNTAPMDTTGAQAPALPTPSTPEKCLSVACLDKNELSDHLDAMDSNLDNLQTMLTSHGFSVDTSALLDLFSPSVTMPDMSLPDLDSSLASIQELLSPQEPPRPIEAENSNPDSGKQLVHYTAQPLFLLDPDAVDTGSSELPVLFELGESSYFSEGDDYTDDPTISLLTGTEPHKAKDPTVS

Cytochrome P450 3A4 = Cytochrome P450 3A4 (Homo sapiens, UniProt P08684);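 note: CYP3A4 tested as one member of a cytochrome P450 panel screen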
Chain of Cytochrome P450 3A4 (P08684 whole entry): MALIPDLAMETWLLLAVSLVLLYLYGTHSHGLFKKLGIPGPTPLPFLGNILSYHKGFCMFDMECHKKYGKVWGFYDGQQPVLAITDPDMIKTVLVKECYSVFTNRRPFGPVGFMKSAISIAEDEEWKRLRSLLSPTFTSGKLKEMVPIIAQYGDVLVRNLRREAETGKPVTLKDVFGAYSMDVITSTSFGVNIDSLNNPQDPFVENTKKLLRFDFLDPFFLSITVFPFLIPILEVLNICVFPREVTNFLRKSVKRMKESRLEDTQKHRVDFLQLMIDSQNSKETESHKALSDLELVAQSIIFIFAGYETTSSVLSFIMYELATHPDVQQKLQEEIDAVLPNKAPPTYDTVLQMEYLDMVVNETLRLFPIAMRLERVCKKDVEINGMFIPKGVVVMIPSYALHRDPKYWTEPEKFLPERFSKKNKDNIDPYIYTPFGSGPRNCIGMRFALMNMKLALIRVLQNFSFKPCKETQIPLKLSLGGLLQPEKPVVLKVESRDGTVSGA

[2] = Trypanosoma cruzi growth suppression in host cells – NIH3T3 host cells, beta-gal luminescence, confirmation (AID 2044); format: functional, cell-based;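 note: intracellular parasites grown in NIH/3T3 mouse fibroblasts as host cells; luminescent beta-galactosidase reporter signal from transgenic T. cruzi replicating inside host cells; inhibitors lower the luminescence signal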
[3] = NIH3T3 cell viability loss – ATP luminescence, mouse fibroblasts, counter-screen, dose response (AID 2010); format: functional, cell-based;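 note: cells exposed to compound for about 90 hours before reading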
Cytochrome P450 2D6 = Cytochrome P450 2D6 (Homo sapiens, UniProt P10635);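 note: CYP2D6 member of a cytochrome P450 panel assay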
Chain of Cytochrome P450 2D6 (P10635 whole entry): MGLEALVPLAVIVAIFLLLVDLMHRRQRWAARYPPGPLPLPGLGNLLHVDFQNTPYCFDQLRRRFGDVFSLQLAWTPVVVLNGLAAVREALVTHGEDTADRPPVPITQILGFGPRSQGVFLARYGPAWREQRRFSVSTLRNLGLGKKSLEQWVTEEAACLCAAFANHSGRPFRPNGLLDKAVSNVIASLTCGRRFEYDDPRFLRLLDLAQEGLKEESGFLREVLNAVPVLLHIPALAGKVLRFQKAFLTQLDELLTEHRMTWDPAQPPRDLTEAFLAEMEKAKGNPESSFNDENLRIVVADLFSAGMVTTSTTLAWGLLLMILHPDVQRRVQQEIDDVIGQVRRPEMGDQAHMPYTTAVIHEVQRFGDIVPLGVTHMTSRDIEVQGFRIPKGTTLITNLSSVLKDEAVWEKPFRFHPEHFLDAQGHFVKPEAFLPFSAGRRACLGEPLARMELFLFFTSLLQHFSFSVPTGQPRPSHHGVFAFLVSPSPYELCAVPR

[4] = system: Streptococcus sp. 'group A'; assay: Streptococcus pyogenes SK(-)GAS viability under kanamycin – luminescence, BacTiterGlo, confirmation, counter-screen for streptokinase expression inhibitor project, dose response (AID 1900); format: functional, organism-based
Streptococcus = assay: GAS UMAA2166 growth inhibition – luminescence, BacTiterGlo, counter-screen for streptokinase expression inhibitor project, dose response (AID 1915); format: functional, organism-based;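 note: potency for reduction of bacterial viability or growth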

Chain of Cytochrome P450 2C19 (P33261 whole entry): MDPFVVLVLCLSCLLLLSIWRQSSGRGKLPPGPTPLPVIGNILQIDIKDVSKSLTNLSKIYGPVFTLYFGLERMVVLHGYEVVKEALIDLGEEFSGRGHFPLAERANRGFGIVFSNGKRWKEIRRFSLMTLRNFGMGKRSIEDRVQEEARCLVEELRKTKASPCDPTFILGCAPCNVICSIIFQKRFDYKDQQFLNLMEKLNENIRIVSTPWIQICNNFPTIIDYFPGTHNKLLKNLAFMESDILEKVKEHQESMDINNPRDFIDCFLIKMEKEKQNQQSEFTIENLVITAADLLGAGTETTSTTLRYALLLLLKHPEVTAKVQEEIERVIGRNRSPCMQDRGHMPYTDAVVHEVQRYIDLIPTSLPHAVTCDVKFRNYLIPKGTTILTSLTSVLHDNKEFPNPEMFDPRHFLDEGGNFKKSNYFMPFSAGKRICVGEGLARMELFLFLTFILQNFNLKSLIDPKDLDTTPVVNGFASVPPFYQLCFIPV

SMILES: N[C@H](CCCC(=O)O)C(=O)O
- AC50 (Cytochrome P450 2C19): inconclusive

SMILES: O=C(O)C1C2C=CC(O2)C1C(=O)Nc1ccc2c(c1)OCCO2 (stereo not given)
- EC50 [1]: 25.9 µM (active)

SMILES: O=C1CCC[C@@H](C(C(=O)OCc2ccccc2)C(=O)OCc2ccccc2)C1
- AC50 (Cytochrome P450 2C19; read-out: AC50): 3.98 µM (inconclusive)
- AC50 (Cytochrome P450 3A4): 3.98 µM (inconclusive)

SMILES: COc1cc(NC(=O)c2cc(-c3ccc4c(c3)OCO4)on2)cc(OC)c1OC
- EC50 [2]: 0.115 µM (active)
- EC50 [3]: > 30 µM (not active)

SMILES: Cn1c(=O)c2nc(CCS)[nH]c2n(C)c1=O
- AC50 (Cytochrome P450 3A4): 10 µM (inconclusive)

SMILES: Cc1ccc(OCC(=O)Nc2cnc(O)nc2O)cc1C
- EC50 [1]: > 195 µM (not active)

SMILES: CC(C)Cn1c(N)c(C(=O)CSc2nc3ccccc3c(=O)n2CCCN2CCOCC2)c(=O)n(C)c1=O
- EC50 [2]: 1.5 µM (active)
- EC50 [3]: > 60 µM (not active)

SMILES: CCOc1ccc(C(=O)COC(=O)Cc2nnc(O)c3ccccc23)cc1
- EC50 [1]: > 195 µM (not active)

SMILES: OC(COc1ccc(F)cc1Cl)CN1CCC(Cc2ccccc2)CC1 (stereo not given)
- EC50 [2]: 4.04 µM (active)
- EC50 [3]: > 30 µM (not active)

SMILES: CN1CCN(c2nc(Nc3cccc(C(F)(F)F)c3)nc(N3CCOCC3)n2)CC1
- EC50 [2]: 1.78 µM (active)
- EC50 [3]: 10.3 µM (active)

SMILES: O=C(O)CN1CCN(Cc2ccc(F)cc2Cl)C1=O
- AC50 (Cytochrome P450 2D6): 20 µM (inconclusive)

SMILES: Cc1ccc(-n2c(=O)cc(N3CCN(Cc4ccccc4)CC3)[nH]c2=O)cc1
- EC50 [1]: > 195 µM (not active)

SMILES: CC(C)CCNC(=O)c1ccc2c(SCC(=O)O)c3c(nc2c1)CCC3
- EC50 [1]: > 195 µM (not active)

SMILES: Cc1nn(-c2ccc([N+](=O)[O-])cc2)c2c1C(c1ccc(OC(F)F)cc1)N1C(=N2)C(=O)Nc2ccccc21 (stereo not given)
- EC50 [2]: 1.31 µM (active)
- EC50 [3]: > 60 µM (not active)

SMILES: COC(=O)CSc1ccc2nnc(-c3ccc(F)cc3)n2n1
- AC50 (Cytochrome P450 2C19; read-out: AC50): 28.2 µM (inconclusive)

SMILES: CCCn1c(-c2cccs2)nc2nc3ccccc3nc21
- AC50 (Cytochrome P450 2D6): 28.2 µM (inconclusive)

SMILES: CCOC(=O)c1cc2c(C(F)(F)F)cc(-c3ccccc3)nc2o1
- AC50 (Cytochrome P450 2C19; read-out: AC50): 25.1 µM (inconclusive)

SMILES: Cc1nc2cnc(Nc3ccccc3)nc2n(C[C@H]2CCCO2)c1=O
- AC50 (Cytochrome P450 3A4): 15.8 µM (inconclusive)

SMILES: Clc1ccc(CNCCCSc2ncccn2)cc1Cl
- EC50 [2]: 1.19 µM (active)
- EC50 [3]: > 60 µM (not active)

SMILES: Nc1cc(N)nc(SCC(=O)c2ccccc2)n1
- AC50 (Cytochrome P450 2C19; read-out: AC50): 7.08 µM (inconclusive)
- AC50 (Cytochrome P450 3A4): 35.5 µM (inconclusive)

SMILES: Cc1cc(Nc2ccc3c(c2)OCCO3)c2cc(Cl)ccc2n1
- EC50 [1]: 17.2 µM (active)

SMILES: CC1(C)OC(=O)N(Cc2ccco2)C1(C)O (stereo not given)
- AC50 (Cytochrome P450 2C19; read-out: AC50): 14.1 µM (inconclusive)

SMILES: CCN(CC)S(=O)(=O)c1ccc(C(=O)Nc2ncn(Cc3ccccc3)n2)cc1
- AC50 (Cytochrome P450 2C19; read-out: AC50): 25.1 µM (inconclusive)

SMILES: Cc1c(C2=CCN(S(=O)(=O)c3ccc(Br)cc3)CC2)c2ccccc2n1C
- EC50 [1]: > 195 µM (not active)

SMILES: Cc1ccc(S(=O)(=O)NCCSc2nnnn2C)cc1
- AC50 (Cytochrome P450 3A4): 14.1 µM (inconclusive)

SMILES: Cc1nc(C)c(-c2nnc(-c3cccc(S(=O)(=O)N(C)C)c3)o2)cc1C(=O)NN
- EC50 [1]: > 195 µM (not active)

SMILES: CCOC(=O)c1nc(Nc2cc(C)cc(C)c2)c2ccccc2n1
- EC50 [2]: 2.85 µM (active)
- EC50 [3]: > 30 µM (not active)

SMILES: O=C(NCCc1csc(-c2ccccc2)n1)c1ccccc1F
- EC50 [2]: 0.531 µM (active)
- EC50 [3]: > 60 µM (not active)

SMILES: NS(=O)(=O)c1ccc(Nc2nc(-c3cccc([N+](=O)[O-])c3)cs2)cc1
- EC50 [2]: 4.08 µM (active)
- EC50 [3]: > 60 µM (not active)

SMILES: CC12CCC3C(CC=C4CC5(CCC43C)OCCO5)C1CCC2=O (stereo not given)
- EC50 [1]: > 195 µM (not active)

SMILES: COCCn1c(=O)c(-c2cccs2)nc2cnc(OCc3ccccc3)nc21
- AC50 (Cytochrome P450 3A4): 3.16 µM (inconclusive)

SMILES: C/C=C(\C)CN1CCC(n2nccc2NC(=O)c2ccc(OC)cc2)CC1
- EC50 [2]: 0.703 µM (active)
- EC50 [3]: > 60 µM (not active)

SMILES: COc1ccccc1CN1CCCC(CN(CCN(C)C)C(=O)C2CCCC2)C1 (stereo not given)
- EC50 [1]: > 195 µM (not active)

SMILES: O=S(=O)(Nc1cccc(Oc2cnccn2)c1)c1ccc(F)cc1
- EC50 [1]: > 195 µM (not active)

SMILES: COc1cccc(-c2cc(NCc3cnc(C)cn3)ncn2)c1
- AC50 (Cytochrome P450 2C19; read-out: AC50): 0.398 µM (inconclusive)

SMILES: Cc1ccc([C@@]2(C)CC/C(=N/N=C3\CC[C@](C)(c4ccc(C)c(C)c4)c4cc(C)c(C)cc43)c3cc(C)c(C)cc32)cc1C
- AC50 (Cytochrome P450 2C19): inconclusive

SMILES: CN1CCN(c2ncnc3ccc(-c4ccc(C(=O)N(C)C)cc4)cc23)CC1
- AC50 (Cytochrome P450 3A4): 25.1 µM (inconclusive)

SMILES: CCOCCn1c(SCC(=O)OCc2ccccc2)nc2c1c(=O)[nH]c(=O)n2C
- EC50 [1]: > 195 µM (not active)

SMILES: CC(C)(C)C1CCC2(CC1)CCN(CCCN1CCOCC1)CC2
- AC50 (Cytochrome P450 2D6): 3.98 µM (inconclusive)

SMILES: O=C(NCc1ccccc1)c1onc(CSc2ccccc2)c1C(=O)NCC1CC1
- EC50 [2]: 4.28 µM (active)
- EC50 [3]: > 60 µM (not active)

SMILES: CCOc1cccc(CN2CCCC(CCC(=O)NCc3ccccc3F)C2)c1O (stereo not given)
- EC50 [2]: 0.222 µM (active)
- EC50 [3]: > 60 µM (not active)

SMILES: CCOc1ccc(CN(C)CC(=O)Nc2cc(OC)c([N+](=O)[O-])cc2C)cc1
- EC50 [2]: 0.404 µM (active)
- EC50 [3]: > 30 µM (not active)

SMILES: O=C(CN1CCN(Cc2ccccc2)CC1)c1ccc(Br)cc1
- AC50 (Cytochrome P450 2C19; read-out: AC50): 14.1 µM (inconclusive)
- AC50 (Cytochrome P450 3A4): 14.1 µM (inconclusive)

SMILES: Cc1cc(/C=C2\SC(=O)NC2=O)c(C)n1-c1ccc(N2CCOCC2)cc1
- EC50 [4]: 1.32 µM (active)
- EC50 (Streptococcus): 4.72 µM (active)

SMILES: NS(=O)(=O)c1ccc(/N=N\c2cc3ccccc3c(C(=O)O)c2O)cc1
- AC50 (Cytochrome P450 3A4): 3.16 µM (inconclusive)

SMILES: COC(=O)N1CCC2(CCN(Cc3ccc(C#N)cc3)CC2)CC1
- AC50 (Cytochrome P450 2C19; read-out: AC50): 0.1 µM (inconclusive)

SMILES: CC(NC(=O)CN1C(=O)NC(Cc2ccccc2)(Cc2ccccc2)C1=O)C12CC3CC(CC(C3)C1)C2 (stereo not given)
- EC50 [2]: 2.81 µM (active)
- EC50 [3]: > 30 µM (not active)

SMILES: O=C(NCCN1CCN(C(=O)c2cc3ccccc3oc2=O)CC1)c1cc2ccccc2oc1=O
- AC50 (Cytochrome P450 2C19; read-out: AC50): 3.98 µM (inconclusive)
- AC50 (Cytochrome P450 3A4): 14.1 µM (inconclusive)

SMILES: Brc1ccccc1OCCCCCN1CCCC1
- EC50 [2]: 2.22 µM (active)
- EC50 [3]: > 30 µM (not active)

SMILES: CCOC(=O)N1CCN(CC(O)COC2CC(C)CC(C)(C)C2)CC1 (stereo not given)
- EC50 [1]: > 195 µM (not active)

SMILES: COc1ccc(COC(=O)N/N=C2/C[C@@H](O)[C@@H](O)[C@@H]3[C@@H]4C(=O)N(c5cccc(Oc6ccccc6)c5)C(=O)[C@H]4CC[C@@H]23)cc1
- AC50 (Cytochrome P450 2D6): 3.16 µM (inconclusive)

SMILES: Cc1nnc(Sc2cc(C(=O)NCCCN(C)Cc3ccccc3)c3ccccc3n2)s1
- EC50 [2]: 0.521 µM (active)
- EC50 [3]: > 60 µM (not active)

SMILES: O=C(c1ccc(CN2CCc3ccccc3C2)cc1)N1CCc2ccccc2C1
- AC50 (Cytochrome P450 3A4): 3.98 µM (inconclusive)

SMILES: CN(C)c1ccc(-c2noc(C3CCN(C(=O)Nc4ccc(Cl)cc4)CC3)n2)cc1
- EC50 [1]: > 195 µM (not active)

SMILES: CCCCN1C(=O)NC(=O)/C(=C(/CC)NCc2ccc(F)cc2)C1=O
- AC50 (Cytochrome P450 3A4): 28.2 µM (inconclusive)

SMILES: c1cncc(-c2nc(N3CCNCC3)c3ccccc3n2)c1
- AC50 (Cytochrome P450 3A4): 31.6 µM (inconclusive)

SMILES: COc1ncc2ncc(=O)n(Cc3cccs3)c2n1
- AC50 (Cytochrome P450 3A4): 1.26 µM (inconclusive)

SMILES: CN(C)CCCN(C(=O)c1ccc(S(=O)(=O)N2CCc3ccccc32)cc1)c1nc2c(Cl)cccc2s1
- EC50 [2]: 0.206 µM (active)
- EC50 [3]: 20.2 µM (active)

SMILES: O=C(c1ccccc1)N1CCN(CC2CC=CCC2)CC1 (stereo not given)
- EC50 [1]: > 195 µM (not active)

SMILES: CC(=O)NC1(C(F)(F)F)C(=O)N(Cc2ccccc2)C2=C1C(=O)CC(C)(C)C2 (stereo not given)
- AC50 (Cytochrome P450 2C19; read-out: AC50): 15.8 µM (inconclusive)
- AC50 (Cytochrome P450 3A4): 14.1 µM (inconclusive)

SMILES: COc1cc(N)c(Cl)cc1C(=O)N[C@@H]1CN2CCC1CC2
- AC50 (Cytochrome P450 2D6): 39.8 µM (inconclusive)

SMILES: CC(C)N(CCC(=O)c1ccc2ccccc2c1)Cc1ccccc1
- AC50 (Cytochrome P450 3A4): 39.8 µM (inconclusive)

Reference: ChEMBL document CHEMBL1201862, “PubChem BioAssay data set” (2004)
